Values of other authors in US6051591A, “Diazabicyclooctane derivatives” (Merck Sharp & Dohme Ltd., priority 1995, dated 2000).

Tests used:
[1] = therapeutic doses
[2] = system: human 5-HT1Dα and 5-HT1Dβ receptor subtypes; details: cf. WO-A-91/17174, Table 1

discrimination between human 5-HT1Dα and 5-HT1Dβ receptor subtypes [2]: barely discriminates
SMILES: CNS(=O)(=O)Cc1ccc2[nH]cc(CCN(C)C)c2c1 [sumatriptan]
adverse cardiovascular events in humans [1]: certain adverse cardiovascular events
